Measured values published in ChEMBL document CHEMBL1909046, “DrugMatrix in vitro pharmacology data”.

Legend:
[1] = biological target: T1, Vasoactive intestinal polypeptide receptor 1 (Homo sapiens, UniProt P32241); format: cell membranes, Membrane; settings: ht-29; also: in other assays of this panel Not Active means under 50% inhibition at 10 µM
T1 sequence (P32241 whole entry): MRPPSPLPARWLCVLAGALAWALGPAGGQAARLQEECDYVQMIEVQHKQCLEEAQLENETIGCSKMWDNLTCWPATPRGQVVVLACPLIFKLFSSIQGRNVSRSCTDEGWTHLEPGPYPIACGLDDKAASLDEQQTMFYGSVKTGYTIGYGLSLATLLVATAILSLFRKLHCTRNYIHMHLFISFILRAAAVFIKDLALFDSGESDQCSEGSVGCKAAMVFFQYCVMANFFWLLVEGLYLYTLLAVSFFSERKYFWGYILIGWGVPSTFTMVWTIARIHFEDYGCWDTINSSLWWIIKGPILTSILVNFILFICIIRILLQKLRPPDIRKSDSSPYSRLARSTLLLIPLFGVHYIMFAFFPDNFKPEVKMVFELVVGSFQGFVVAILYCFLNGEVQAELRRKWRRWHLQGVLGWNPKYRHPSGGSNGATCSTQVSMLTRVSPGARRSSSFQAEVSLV

[2] = biological target: T2, 3-hydroxy-3-methylglutaryl-coenzyme A reductase (Homo sapiens, UniProt P04035); set-up: species or system Escherichia coli;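 also: enzyme inhibition assay of HMG-CoA reductase using radiolabeled [14C]HMG-CoA as substrate; in other assays of this panel Not Active means under 50% inhibition at 10 µM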
T2 sequence (P04035 whole entry): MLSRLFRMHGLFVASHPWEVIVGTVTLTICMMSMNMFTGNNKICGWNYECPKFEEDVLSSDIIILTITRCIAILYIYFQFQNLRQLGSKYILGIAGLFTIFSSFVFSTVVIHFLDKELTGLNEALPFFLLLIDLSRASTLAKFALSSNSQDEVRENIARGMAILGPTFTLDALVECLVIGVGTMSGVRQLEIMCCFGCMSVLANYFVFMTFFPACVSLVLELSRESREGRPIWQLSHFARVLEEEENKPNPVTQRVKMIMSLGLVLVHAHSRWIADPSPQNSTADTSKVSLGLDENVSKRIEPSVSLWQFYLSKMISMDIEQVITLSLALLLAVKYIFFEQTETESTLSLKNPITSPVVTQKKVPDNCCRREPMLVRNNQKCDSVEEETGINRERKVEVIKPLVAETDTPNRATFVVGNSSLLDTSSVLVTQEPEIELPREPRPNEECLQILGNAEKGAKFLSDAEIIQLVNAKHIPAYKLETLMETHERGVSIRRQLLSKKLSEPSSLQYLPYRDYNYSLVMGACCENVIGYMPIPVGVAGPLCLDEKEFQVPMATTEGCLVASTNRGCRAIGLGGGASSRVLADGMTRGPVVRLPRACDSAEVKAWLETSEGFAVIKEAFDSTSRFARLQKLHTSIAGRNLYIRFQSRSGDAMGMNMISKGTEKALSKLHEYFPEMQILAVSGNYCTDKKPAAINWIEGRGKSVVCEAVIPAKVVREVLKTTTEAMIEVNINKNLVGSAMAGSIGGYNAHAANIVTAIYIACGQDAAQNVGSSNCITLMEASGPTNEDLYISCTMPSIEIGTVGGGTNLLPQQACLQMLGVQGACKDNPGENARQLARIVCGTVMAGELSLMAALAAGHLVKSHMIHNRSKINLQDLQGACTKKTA

[3] = biological target: T3, Progesterone receptor (Bos taurus, UniProt Q690N0); experiment: DRUGMATRIX: Progesterone radioligand binding (ligand: [3H] R-5020); format: tissue-based, Uterus; settings: Not Active = under 50% inhibition at 10 µM
T3 sequence (Q690N0 whole entry): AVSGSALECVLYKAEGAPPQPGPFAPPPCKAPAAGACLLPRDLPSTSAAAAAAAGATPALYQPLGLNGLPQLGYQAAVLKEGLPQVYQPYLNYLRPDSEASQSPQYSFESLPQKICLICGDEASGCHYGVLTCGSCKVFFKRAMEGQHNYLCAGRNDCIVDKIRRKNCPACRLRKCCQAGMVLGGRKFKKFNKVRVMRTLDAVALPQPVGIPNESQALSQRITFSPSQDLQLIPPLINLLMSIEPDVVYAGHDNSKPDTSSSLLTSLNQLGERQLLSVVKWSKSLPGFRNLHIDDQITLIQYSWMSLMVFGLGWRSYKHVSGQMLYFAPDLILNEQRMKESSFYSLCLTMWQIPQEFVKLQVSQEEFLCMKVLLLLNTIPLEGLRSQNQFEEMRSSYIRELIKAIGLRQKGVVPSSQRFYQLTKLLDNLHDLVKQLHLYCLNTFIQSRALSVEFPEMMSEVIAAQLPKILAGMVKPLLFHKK

[4] = DRUGMATRIX: Potassium Channel [KATP] radioligand binding (ligand: [3H] Glyburide); format: cell membranes, Membrane; settings: hit-t15; Not Active = under 50% inhibition at 10 µM
[5] = biological target: Sodium-dependent dopamine transporter (Homo sapiens, UniProt Q01959); experiment: DRUGMATRIX: Dopamine Transporter radioligand binding (ligand: [125I] RTI-55); format: cell membranes, CHO-K1, Membrane; settings: cho-k1; Not Active = under 50% inhibition at 10 µM
Sodium-dependent dopamine transporter, sequence (Q01959 whole entry): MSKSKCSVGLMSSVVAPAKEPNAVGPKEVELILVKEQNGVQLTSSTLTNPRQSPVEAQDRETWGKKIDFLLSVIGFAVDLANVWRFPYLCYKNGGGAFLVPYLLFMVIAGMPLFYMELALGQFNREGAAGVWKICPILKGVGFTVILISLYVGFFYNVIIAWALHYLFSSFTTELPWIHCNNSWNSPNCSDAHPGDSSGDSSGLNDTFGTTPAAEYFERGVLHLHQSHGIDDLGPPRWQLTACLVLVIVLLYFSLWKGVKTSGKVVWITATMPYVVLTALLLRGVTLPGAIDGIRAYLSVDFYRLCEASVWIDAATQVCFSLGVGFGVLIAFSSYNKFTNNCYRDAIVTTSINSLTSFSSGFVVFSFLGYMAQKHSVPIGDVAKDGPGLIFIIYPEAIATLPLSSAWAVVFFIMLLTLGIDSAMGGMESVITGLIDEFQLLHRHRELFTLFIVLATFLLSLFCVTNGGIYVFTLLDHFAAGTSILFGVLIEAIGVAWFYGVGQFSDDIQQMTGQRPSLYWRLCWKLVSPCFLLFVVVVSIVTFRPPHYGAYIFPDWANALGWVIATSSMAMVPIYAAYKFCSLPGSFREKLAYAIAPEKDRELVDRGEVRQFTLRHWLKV

[6] = DRUGMATRIX: Glutamate, Kainate radioligand binding (ligand: [3H] Kainic acid); format: cell membranes, Rattus norvegicus, Wistar, Brain, Membrane; settings: Not Active = under 50% inhibition at 10 µM
[7] = DRUGMATRIX: Atrial Natriuretic Factor (ANF) radioligand binding (ligand: [125I] ANF (rat)); format: cell membranes, Cavia porcellus, Dunkin-Hartley, Adrenal gland, Membrane; settings: Not Active = under 50% inhibition at 10 µM

O=C(c1ccccc1C(F)(F)F)N1CCC(Cc2ccccc2)CC1
Not Active: IC50 [1] | IC50 [2] | IC50 [3] | IC50 [4] | Ki [4] | IC50 [5] | IC50 [6] | Ki [6] | IC50 [7] | Ki [7]

O=C/C=C/c1ccccc1
Not Active: IC50 [1] | IC50 [2] | IC50 [3] | IC50 [4] | Ki [4] | IC50 [5] | IC50 [6] | Ki [6] | IC50 [7] | Ki [7]

Nc1ccc2c3c(cccc13)C(=O)NC2=O
Not Active: IC50 [1] | IC50 [2] | IC50 [3] | IC50 [4] | Ki [4] | IC50 [5] | IC50 [6] | Ki [6] | IC50 [7] | Ki [7]

COc1ccc(C(=O)N2CCCC2=O)cc1
Not Active: IC50 [1] | IC50 [2] | IC50 [3] | IC50 [4] | Ki [4] | IC50 [5] | IC50 [6] | Ki [6] | IC50 [7] | Ki [7]

O=c1cnn([C@@H]2O[C@H](CO)[C@@H](O)[C@H]2O)c(=O)[nH]1 [6-AZAURIDINE]
Not Active: IC50 [1] | IC50 [2] | IC50 [3] | IC50 [4] | Ki [4] | IC50 [5] | IC50 [6] | Ki [6] | IC50 [7] | Ki [7]

CC[C@H](C)[C@H]1O[C@]2(C=C[C@@H]1C)C[C@@H]1C[C@@H](C/C=C(\C)[C@@H](O[C@H]3C[C@H](OC)[C@@H](O[C@H]4C[C@H](OC)[C@@H](O)[C@H](C)O4)[C@H](C)O3)[C@@H](C)/C=C/C=C3\CO[C@@H]4[C@H](O)C(C)=C[C@@H](C(=O)O1)[C@]34O)O2.CO[C@H]1C[C@H](O[C@H]2[C@H](C)O[C@@H](O[C@@H]3/C(C)=C/C[C@@H]4C[C@@H](C[C@]5(C=C[C@H](C)[C@@H](C(C)C)O5)O4)OC(=O)[C@@H]4C=C(C)[C@@H](O)[C@H]5OC/C(=C\C=C\[C@@H]3C)[C@]54O)C[C@@H]2OC)O[C@@H](C)[C@@H]1O [ABAMECTIN]
Not Active: IC50 [1] | IC50 [2] | IC50 [3] | IC50 [4] | Ki [4] | IC50 [5] | IC50 [6] | Ki [6] | IC50 [7] | Ki [7]

NCCCC(O)(P(=O)(O)O)P(=O)(O)O [ALENDRONIC ACID]
Not Active: IC50 [1] | IC50 [2] | IC50 [3] | IC50 [4] | Ki [4] | IC50 [5] | IC50 [6] | Ki [6] | IC50 [7] | Ki [7]

Cc1nnc2n1-c1ccc(Cl)cc1C(c1ccccc1)=NC2 [ALPRAZOLAM]
Not Active: IC50 [1] | IC50 [2] | IC50 [3] | IC50 [4] | Ki [4] | IC50 [5] | IC50 [6] | Ki [6] | IC50 [7] | Ki [7]

Cn1c(=O)c2[nH]cnc2n(C)c1=O.Cn1c(=O)c2[nH]cnc2n(C)c1=O.NCCN [AMINOPHYLLINE]
Not Active: IC50 [1] | IC50 [2] | IC50 [3] | IC50 [4] | Ki [4] | IC50 [5] | IC50 [6] | Ki [6] | IC50 [7] | Ki [7]

CCC1(CCC(C)C)C(=O)NC(=O)NC1=O [AMOBARBITAL]
Not Active: IC50 [1] | IC50 [2] | IC50 [3] | IC50 [4] | Ki [4] | IC50 [5] | IC50 [6] | Ki [6] | IC50 [7] | Ki [7]

CC(=O)Oc1ccc(C(c2ccc(OC(C)=O)cc2)c2ccccn2)cc1 [BISACODYL]
Not Active: IC50 [1] | IC50 [2] | IC50 [3] | IC50 [4] | Ki [4] | IC50 [6] | Ki [6] | IC50 [7] | Ki [7]

NC(=O)C[S+]([O-])C(c1ccccc1)c1ccccc1 (stereo unspecified) [MODAFINIL]
Not Active: IC50 [1] | IC50 [2] | IC50 [3] | IC50 [4] | Ki [4] | IC50 [6] | Ki [6] | IC50 [7] | Ki [7]

CC(C)NCC(O)COc1cccc2[nH]ccc12 (stereo unspecified) [PINDOLOL]
Not Active: IC50 [1] | IC50 [2] | IC50 [4] | Ki [4] | IC50 [5] | IC50 [6] | Ki [6] | IC50 [7] | Ki [7]

CCCNCC(O)COc1ccccc1C(=O)CCc1ccccc1 (stereo unspecified) [PROPAFENONE]
Not Active: IC50 [1] | IC50 [2] | IC50 [3] | IC50 [4] | Ki [4] | IC50 [6] | Ki [6] | IC50 [7] | Ki [7]
